Test results as given in patent publication US11141410B2 (MERCK SHARP & DOHME CORP., priority 2015, dated 2021).

Experiments:
MRSA COL (MB5393) [1] = experiment: TarO Inhibitor/β-Lactam Synergy Assay (growth, OD600); format: cell-based, Staphylococcus aureus; conditions: for MITC95 TarO inhibitor + 4 μg/mL IPM; Bacteria: SA_MB5393: in combination with 4 μg/mL imipenem (IPM); for MITC95 TarO inhibitor + 8 μg/mL DCX; Bacteria: SA_MB5393: in combination with 8 μg/mL dicloxacillin (DCX)
Procedure: The TarO inhibitor/β-lactam synergy assay was performed to measure the re-sensitization of methicillin-resistant Staphylococci bacteria (MB5393: MRSA COL) to β-lactam antibiotics by TarO inhibitors. MRSA COL is a hospital-acquired penicillinase-negative clinically isolated strain commonly used in Staphylococcus aureus studies and is fully resistant to the antimicrobial bioactivity of β-lactam antibiotics, including but not limited to imipenem and dicloxacillin. […] MRSA COL is fully refractory to β-lactam antibiotic effect at the current clinical breakpoint concentrations and as such MRSA COL is fully viable at these concentrations.
The β-lactam antibiotic concentration was fixed at the clinical breakpoint (imipenem 4 μg/ml or dicloxacillin 8 μg/ml) and the TarO inhibitors were titrated by 2 fold starting from the highest concentration of 200 μM with final DMSO concentration of 2% in the assay. 5×10^5 colony forming unit of MRSA COL in cation-adjusted Mueller Hinton broth (CAMHB) was then mixed and the assay plate was incubated for 20 hours at 37° C. without shaking. After 20 hours, the optical density at 600 nm (OD600) was read for all wells to determine relative growth of MRSA COL.

MRSA COL (MB5393) [2] = experiment: as above; format: cell-based; conditions: Staphylococcus aureus, TarO inhibitor alone, >200 μM = 95% growth inhibition not achieved, 20 hours at 37° C., read-out: MITC95 TarO inhibitor alone, Bacteria: SA_MB5393

| Compound | MITC95 TarO inhibitor + 4 μg/mL IPM; Bacteria: SA_MB5393 (MRSA COL (MB5393) [1]) [µM] | MITC95 TarO inhibitor + 8 μg/mL DCX; Bacteria: SA_MB5393 (MRSA COL (MB5393) [1]) [µM] | IC95 (MRSA COL (MB5393) [2]) [µM] |
| --- | --- | --- | --- |
| C[C@H]1[C@@H](c2cc(F)cc(C(F)(F)F)c2)OC(=O)N1C(=O)NCc1cccc2nccnc12 [Example 22, (4S,5R)-5-[3-fluoro-5-(trifluoromethyl)phenyl]-4-methyl-2-oxo-N-(quinoxalin-5-ylmethyl)-1,3-oxazolidine-3-carboxamide] | 0.49 | 6.25 | > 200 |
| O=C(NCc1cncc2cccnc12)N1C(=O)O[C@H](c2cc(C(F)(F)F)cc(C(F)(F)F)c2)[C@@H]1CO [Example 53, (4S,5R)-5-[3,5-bis(trifluoromethyl)phenyl]-4-(hydroxymethyl)-N-(1,6-naph-thyridin-8-yl-methyl)-2-oxo-1,3-oxazolidine-3-carboxamide] | 0.39 | 1.37 | > 200 |
| COc1cccnc1CNC(=O)N1C(=O)O[C@H](c2cc(C(F)(F)F)cc(C(F)(F)F)c2)[C@@H]1C [Example 38, (4S,5R)-5-[3,5-bis(trifluoromethyl)phenyl]-N-[(3-methoxypyridin-2-yl)methyl]-4-methyl-2-oxo-1,3-oxazolidine-3-carboxamide] | 1.56 | 25 | > 200 |
| C[C@H]1[C@@H](c2cc(C(F)(F)F)cc(C(F)(F)F)c2)OC(=O)N1C(=O)NCc1cnc2c(c1)CCC2 [Example 42, (4S,5R)-5-[3,5-bis(trifluoromethyl)phenyl]-N-(6,7-dihydro-5H-cyclopenta[b]pyridin-3-ylmethyl)-4-methyl-2-oxo-1,3-oxazolidine-3-carboxamide] | 0.78 | 12.50 | > 200 |
| COc1cc(C(F)(F)F)cc([C@H]2OC(=O)N(C(=O)NCc3cncc4cccnc34)[C@H]2CO)n1 [Example 64, (4S,5S)-4-(hydroxymethyl)-5-[6-methoxy-4-(trifluoromethyl)pyridin-2-yl]-N-(1,6-naphthyridin-8-ylmethyl)-2-oxo-1,3-oxazolidine-3-carboxamide] | 0.94 | 4.38 | > 200 |
| C[C@H]1[C@@H](c2cc(C(F)(F)F)cc(C(F)(F)F)c2)OC(=O)N1C(=O)CCc1cccc2ccncc12 [Example 75, (4S,5R)-5-[3,5-bis(trifluoromethyl)phenyl]-3-(3-isoquinolin-8-ylpropanoyl)-4-methyl-1,3-oxazolidin-2-one] | 0.13 | 0.78 | > 200 |
| C[C@@H]1NN(C(=O)NCc2cncc3ccccc23)C(=O)O[C@@H]1c1cc(F)cc(C(F)(F)F)c1 [Example 95] | 5.21 | 4.17 | > 200 |
| C[C@H]1[C@@H](c2cc(C(F)(F)F)cc(C(F)(F)F)c2)OC(=O)N1C(=O)/C=C/c1cncc2ccccc12 [Example 100, (4S,5R)-5-(3,5-bis(trifluoromethyl)phenyl)-3-((E)-3-(isoquinolin-4-yl)acryloyl)-4-methyloxazolidin-2-one] | 1.60 | – | > 200 |
| Cc1cc(F)cc([C@H]2OC(=O)N(C(=O)CCc3cncc4ccccc34)[C@H]2C)c1 [Example 79, (4S,5R)-5-(3-fluoro-5-methylphenyl)-3-(3-isoquinolin-4-ylpropanoyl)-4-methyl-1,3-oxazolidin-2-one] | 1.17 | 12.50 | > 200 |
| CC[C@H]1[C@@H](c2cc(C(F)(F)F)cc(C(F)(F)F)c2)OC(=O)N1C(=O)CCc1cncc2ccccc12 [Example 83, (4S,5R)-5-[3,5-bis(trifluoromethyl)phenyl]-4-ethyl-3-(3-isoquinolin-4-ylpropanoyl)-1,3-oxazolidin-2-one] | 0.06 | 0.59 | > 200 |
| C[C@H]1[C@@H](c2cccc(C(F)F)c2)OC(=O)N1C(=O)NCc1cncc2ccccc12 [Example 33, (4S,5R)-5-[3-(difluoromethyl)phenyl]-N-(isoquinolin-4-ylmethyl)-4-methyl-2-oxo-1,3-oxazolidine-3-carboxamide] | 1.37 | 9.38 | > 200 |
| C[C@H]1[C@@H](c2cc(F)cc(C(F)(F)F)c2)OC(=O)N1C(=O)NCc1ccccc1[N+](=O)[O-] [Example 3, (4S,5R)-5-[3-fluoro-5-(trifluoromethyl)phenyl]-4-methyl-N-(2-nitrobenzyl)-2-oxo-1,3-oxazolidine-3-carboxamide] | 0.33 | 2.60 | > 200 |
| COc1cccc(CNC(=O)N2C(=O)O[C@H](c3cc(C(F)(F)F)cc(C(F)(F)F)c3)[C@@H]2CO)c1OC [Example 52, (4S,5R)-5-[3,5-bis(trifluoromethyl)phenyl]-N-(2,3-dimethoxybenzyl)-4-(hydroxymethyl)-2-oxo-1,3-oxazolidine-3-carboxamide] | 0.03 | 0.06 | > 200 |
| C[C@H]1[C@@H](c2cc(C(F)(F)F)cc(C(F)(F)F)c2)OC(=O)N1C(=O)NCc1cccc2c1OCCO2 [Example 49, (4S,5R)-5-[3,5-bis(trifluoromethyl)phenyl]-N-(2,3-dihydro-1,4-benzodioxin-5-ylmethyl)-4-methyl-2-oxo-1,3-oxazolidine-3-carboxamide] | 0.02 | 0.13 | > 200 |
| O=C(CCc1cncc2ccccc12)N1CC(c2cccc(F)c2F)OC1=O (centres unmarked) [Example 86, 5-(2,3-difluorophenyl)-3-(3-isoquinolin-4-ylpropanoyl)-1,3-oxazolidin-2-one] | 1.41 | 8.33 | > 200 |
| COc1cc([C@H]2OC(=O)N(C(=O)NCc3cncc4cccnc34)C[C@H]2C)cc(C(F)(F)F)c1 [Example 94, (5R,6S)-6-[3-methoxy-5-(trifluoromethyl)phenyl]-5-methyl-N-(1,6-naphthyridin-8-ylmethyl)-2-oxo-1,3-oxazinane-3-carboxamide] | 3.52 | 44 | > 200 |
| C[C@H]1[C@@H](c2cc(C(F)(F)F)cc(C(F)(F)F)c2)OC(=O)N1C(=O)NCc1cncc2ccccc12 [Example 1, (4S,5R)-5-(3,5-bis(trifluoromethyl)phenyl)-N-(isoquinolin-4-ylmethyl)-4-methyl-2-oxooxazolidine-3-carboxamide] | 0.03 | 0.39 | > 200 |
